Assays:
IDH1 R132H enzyme = IDH1 R132H enzyme (Homo sapiens (Human), UniProt O75874, R132H); assay: Mutant IDH1 R132H biochemical assay; conditions: luminescent NADPH consumption readout; 1.5 nM enzyme, 1 μM NADPH, 250 μM α-KG, 30 min, 32° C.
Experimental: Mutant IDH1 R132H Biochemical Assay
mIDH1 catalyzes the NADPH-dependent reduction of alpha-ketoglutarate (α-KG) to (2R)-2-hydroxyglutarate (2-HG). NADPH consumption was measured by luminescent readout.
The biochemical reactions were performed at 32° C. in 384-well plates using a reaction volume of 41 μL and the following assay buffer conditions: 50 mM Tris pH 7.5, 100 mM NaCl, 20 mM MgCl2, 0.05% BSA, 0.01% Brij, 1 μM NADPH, and 250 μM α-KG. The IDH1 R132H enzyme was used in a final concentration of 1.5 nM. Test compounds were used in a concentration range between 0.002 and 10 μM. The final DMSO concentration was 2.4%.
The reaction was incubated for 30 minutes, then 40 μL of detection mix (0.75 μg/ml Luciferase, 0.02 U/ml Oxidoreductase, 4 μg/mL FMN, 2 μL/ml decanal/ethanol, 50 mM Tris pH 7.5, 0.5% Glycerin, 0.01% Tween-20, 0.05% BSA) was added. Luminescence was measured on a luminescent reader (10 seconds measuring time, 1 second integration period, 30% sensitivity). The decrease in luminescence is proportional to mIDH1 activity. IC50 values are determined by interpolation from plots of relative luminescence versus inhibitor concentration.

[1] = test system: LN229 R132H cells overexpressing mutated isocitrate dehydrogenase (mIDH); assay: Mutant IDH1 cellular assay (2-HG in medium); format: cell-based; conditions: 2-HG in medium after 24 hours, fluorescence readout
Experimental: Mutant IDH1 Cellular Assay
Levels of (2R)-2-hydroxyglutarate (2HG) were measured in medium of a cell line with overexpression of mutated isocitrate dehydrogenase (mIDH) protein. mIDH catalyzes the NADPH-dependent reduction of alpha-ketoglutarate to 2-HG. Cells (LN229 R132H, Mohrenz et al., Apoptosis (2013) 18:1416-1425) were grown in DMEM containing 10% FCS. They were harvested by trypsin and seeded into 96-well plates. Cells were incubated overnight at 37° C. in 5% CO2. The next day test compounds were added to each cell well. The final concentration of DMSO was 0.1% and DMSO controls were included. The plates were then placed in an incubator for 24 hours.
2-HG was measured according to Balss et al. (Acta Neuropathol (2012) 124: 883-891). Briefly, perchloric acid was added to each well and the plates were centrifuged. Aliquots are removed and incubated with hydroxyglutarate dehydrogenase (HGDH), diaphorase, NAD+, and resazurin. The conversion of resazurin to resorufin was detected by fluorescence spectroscopy at Ex 540 nm Em 600 nm. The increase in fluorescence is proportional to 2-HG production. IC50 values are determined by interpolation from plots of relative fluorescence vs inhibitor concentration.

IDH1 R132H enzyme, sequence (O75874 whole entry R132H): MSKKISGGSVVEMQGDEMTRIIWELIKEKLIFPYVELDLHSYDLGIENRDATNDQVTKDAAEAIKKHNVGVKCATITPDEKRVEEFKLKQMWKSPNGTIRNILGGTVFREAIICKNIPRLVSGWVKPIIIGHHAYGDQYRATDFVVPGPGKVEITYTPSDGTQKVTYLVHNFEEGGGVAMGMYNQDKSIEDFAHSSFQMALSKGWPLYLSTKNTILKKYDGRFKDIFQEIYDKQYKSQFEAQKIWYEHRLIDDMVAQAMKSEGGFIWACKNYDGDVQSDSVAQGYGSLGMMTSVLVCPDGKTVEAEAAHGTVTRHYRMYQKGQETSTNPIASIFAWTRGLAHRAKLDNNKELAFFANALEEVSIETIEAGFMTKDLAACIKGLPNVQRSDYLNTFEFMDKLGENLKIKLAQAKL

SMILES	IC50 (IDH1 R132H enzyme)	IC50 ([1]; Homo sapiens, LN-229, 24 h)	IC50 [1]
C[C@@H]1C[C@H](n2c(Nc3ccc(OC(F)(F)F)cc3)nc3cc(CO)ccc32)CC(C)(C)C1 (single isomer, unassigned; enantiomer a) [Example 2-1-1, (2-{[4-(trifluoromethoxy)phenyl]amino}-1-[(cis)-3,3,5-trimethylcyclohexyl]-1H-benzimidazol-5-yl)methanol, enantiomer A]	50 nM	1300 nM	
COc1cc2c(cc1C(C)(C)O)nc(Nc1ccc(OC(F)(F)F)cc1)n2[C@H]1C[C@@H](C)CC(C)(C)C1 (single isomer, unassigned; enantiomer a) [Example 2-7-1, 2-(6-methoxy-2-{[4-(trifluoromethoxy)phenyl]amino}-1-[(cis)-3,3,5-trimethylcyclohexyl]-1H-benzimidazol-5-yl)propan-2-ol, enantiomer A]	50 nM		480 nM
COc1cc2c(cc1C(C)(C)O)nc(Nc1ccc(OC(F)(F)F)cc1)n2[C@H]1C[C@@H](C)CC(C)(C)C1 (single isomer, unassigned; enantiomer b) [Example 2-7-2, 2-(6-methoxy-2-{[4-(trifluoromethoxy)phenyl]amino}-1-[(cis)-3,3,5-trimethylcyclohexyl]-1H-benzimidazol-5-yl)propan-2-ol, enantiomer B]	20 nM		90 nM
Cc1cc2c(cc1C(C)(C)O)nc(Nc1ccc(OC(F)(F)F)cc1)n2C1CC(C)(C)CC(C)(C)C1 [Example 2-4, 2-[6-methyl-1-(3,3,5,5-tetramethylcyclohexyl)-2-{[4-(trifluoromethoxy)phenyl]amino}-1H-benzimidazol-5-yl]propan-2-ol]	30 nM	550 nM	
Cc1cc2c(cc1[C@@H](O)C(F)(F)F)nc(Nc1ccc(OC(F)(F)F)cc1)n2C1CC(C)(C)CC(C)(C)C1 (racemic) [Example 2-5, (±) 2,2,2-trifluoro-1-[6-methyl-1-(3,3,5,5-tetramethylcyclohexyl)-2-{[4-(trifluoromethoxy)phenyl]amino}-1H-benzimidazol-5-yl]ethanol]	30 nM	800 nM	
COc1cc2c(cc1CO)nc(Nc1ccc(OC(F)(F)F)cc1)n2[C@H]1C[C@@H](C)CC(C)(C)C1 (single isomer, unassigned; enantiomer a) [Example 2-6-1, (6-methoxy-2-{[4-(trifluoromethoxy)phenyl]amino}-1-[(cis)-3,3,5-trimethylcyclohexyl]-1H-benzimidazol-5-yl)methanol, enantiomer A]	20 nM		140 nM
C[C@@H]1C[C@H](n2c(Nc3ccc(OC(F)(F)F)cc3)nc3cc(C(C)(C)O)ccc32)CC(C)(C)C1 (single isomer, unassigned; enantiomer b) [Example 2-2-2, 2-(2-{[4-(trifluoromethoxy)phenyl]amino}-1-[(cis)-3,3,5-trimethylcyclohexyl]-1H-benzimidazol-5-yl)propan-2-ol, enantiomer B]	40 nM	500 nM	
COc1cc2c(cc1CO)nc(Nc1ccc(OC(F)(F)F)cc1)n2[C@H]1C[C@@H](C)CC(C)(C)C1 (single isomer, unassigned; enantiomer b) [Example 2-6-2, (6-methoxy-2-{[4-(trifluoromethoxy)phenyl]amino}-1-[(cis)-3,3,5-trimethylcyclohexyl]-1H-benzimidazol-5-yl)methanol, enantiomer B]	110 nM		630 nM
